Patent US20240344029A1, “STEM CELL DIFFERENTIATION BY CONTROLLING NUCLEAR CURVATURE” (THE ROYAL INSTITUTION FOR THE ADVANCEMENT OF LEARNING / …, priority 2023, published 2024)

Tests used:
Assay type in all cases: cell-based, Murine
[1] = test system: MSCs transfected with Nesprin 2G tension sensor; experiment: Nesprin 2G FRET tension sensor, nuclear membrane tension in MSCs; settings: before versus after actin depolymerization
From the text: To measure nuclear membrane tension, MSCs were co-transfected Nesprin tension sensor (pcdna nesprin TS, 68127, Addgene) and iRFP-YAP plasmid. Nesprin tension sensors are fluorescent resonance energy transfer-based tension biosensors for nesprin 2G, a structural protein at the LINC complex, which links actin cytoskeleton to the nucleus. For control experiments, MSCs were transfected with Nesprin headless control (pcdna nesprin HL, 68128, Addgene), which lacks the actin-binding domain and is localized on the nuclear membrane. […]
All the image processing and analysis was performed on open-source Image J software. […] Ratio images were calculated by dividing the unmixed venus channel by the unmixed teal channel. For each image, binary masks were manually created in ImageJ to exclude pixels outside of the nuclear membrane as determined by the mVenus channel. […] Local FRET intensity and local curvature were measured using Kappa Curvature Analysis plugin in Image J. In brief, the 2D FRET images were opened in Kappa Curvature Analysis plugin and using a selection tool, points were manually selected across the nuclear membrane and a closed curvature fit was performed. […]

MSCs [2] = experiment: Cytochalasin D treatment: endogenous YAP localization and nuclear deformation in MSCs on fibronectin-coated glass coverslips; settings: versus wildtype MSCs
Procedure: For YAP localization measurements MSCs were imaged in two channels one for iRFP YAP transfected or Alexa 647 conjugated secondary antibody-stained cells (Ex 647 nm laser) and other for Hoechst-stained nuclei (Ex 405 nm laser). The principal metric for YAP quantification was the ratio of fluorescence of iRFP YAP in the nucleus to iRFP YAP in the cytoplasm and is referred to as the YAP Ratio. Image segmentation was performed using a custom MATLAB code, that segments the nucleus from Hoechst and cytoplasm from YAP and measures the ratio of total iRFP YAP fluorescence inside the nucleus to total iRFP YAP fluorescence in the cytoplasm.
(§1) To observe endogenous YAP localization, the MSCs were fixed with 4% paraformaldehyde for 15 min in room temperature and washed 3 times with PBS. The cells were permeabilized with 0.1% Triton X-100 diluted in PBS for 10 minutes. To avoid any nonspecific binding, cells were incubated with 1% bovine serum albumin (BSA) in PBS for 30 minutes at room temperature. To visualize YAP, cells were first incubated with 10 μg/ml Anti-YAP1 mouse monoclonal antibody (ab56701, Abcam™) diluted in 1% BSA in PBS overnight, followed by PBS wash and 1 hour incubation with 10 μg/ml Donkey Anti-Mouse IgG H&L (Alexa Fluor™ 647) secondary antibody (ab150107, Abcam™) diluted in 1% BSA in PBS. For nuclear characterization, nuclei were stained with 10 μg/ml Bisbenzimide Hoechst 33342 trihydrochloride (Sigma™) in PBS for 20 minutes, cells were washed with PBS.
To study the role of nuclear deformation in YAP localization, XYZ stacks of Hoechst-stained nuclei of iRFP YAP transfected MSCs were captured using confocal microscope (Leica TCS SP8, 63× objective) with a closed pinhole 0.5 AU and thin Z step size of 0.3 μm. All the XYZ stacks were analyzed using a custom MATLAB code that measures nuclear volumes, surface area, height, major axis, minor axis, and curvature. In brief, the three-dimensional XYZ stacks were, preprocessed by background subtraction threshold, and binarization. The nuclear volumes, surface area, height, major axis, and minor axis were first measured in pixels using regionprops3™ in MATLAB, which were then converted to microns. Nuclear flatness, Nuclear Eccentricity and Nuclear Aspect Ratio were measured using the following equations: […]
For nuclear curvature analysis, XYZ stacks of Hoechst-stained nuclei were resliced into 2D image sections in XY, XZ and YZ directions. For each resliced 2D nuclear image, curvature was measured across the nuclear boundary, using a curvature function in MATLAB. […] This provided us with distribution of curvature values of the complete nucleus quantified from resliced nuclear images in all three dimensions of XY, XZ and YZ separately (FIGS. 9A-9L). […]

MSCs [3] = experiment: YAP localization in MSCs confined on fibronectin line patterns treated with modulators of nuclear import; settings: for YAP Ratio with increasing Kmax XY: fibronectin line patterns 1.5-8 μm, Pitstop2 30 μM 1 hour; for nuclear YAP on thick (8 μm) and thin (1.5 μm) line patterns: microscopy, FIGS. 15B-15D
Procedure: Glass coverslips were adhesively micropatterned on 22*22 mm no. 1 with a UV-based patterning system (PRIMO, Alveole Lab, Paris, France). Glass coverslips were incubated with Poly-L-Lysine (PLL, Sigma) solution (5 mg/mL) prepared in 0.1 M HEPES buffer (pH 8.5) for 1 hour at room temperature, followed by rinsing with MiliQ™ water. Positively charged PLL electrostatically adsorbed onto the negatively charged surface of silicone substrates and allowed protein attachment after printing. The coverslips were then incubated with Polyethylene glycol valeric acid (PEG-SVA, Laysan Bio) prepared in 0.1 M HEPES buffer (pH 8.5) for 30 minutes at room temperature, followed by thorough rinsing with phosphate buffer saline (PBS) pH 7. PEG-SVA acts as an antifouling brush layer that repels protein attachment. The coverslips were then covered with the UV sensitive photo-initiator solution of PLPP (Alveole Lab, Paris, France) and placed on the stage of a microscope (Nikon Ti2 Eclipse) equipped with the UV-patterning system.
To generate the patterns, open-source graphics software programs were used, Inkscape and ImageJ, to generate binary 8-bit mask image files that were loaded into PRIMO's control software. The desired pattern was generated by a digital micromirror array in the PRIMO system and projected using a 375 nm UV laser with an intensity of 29 mW/mm^2 via 20×/0.45NA objective. The projected pattern results in localized photodegradation of the antifouling PEG-SVA brush, in the shape of the desired pattern. An exposure dose of 20 seconds was adequate to complete photodegradation of the PEG-SVA brush. Following UV exposure, the coverslips were washed with PBS and incubated them for 1 hr at room temperature with 40 μg/mL fibronectin (Sigma) in PBS to adsorb the protein to the exposed PLL surface. Excess protein was rinsed off with PBS 3 times prior to cell seeding.
as §1
To identify the mechanisms involved in YAP localization via nuclear curvature, MSCs were confined on fibronectin line patterns of decreasing thickness and then exposed to various drugs that manipulate active and passive nuclear import mechanisms. Finally, MSCs were fixed and stained with Anti-YAP1 antibody and Hoechst as explained above. To inhibit active nuclear import, MSCs were treated with 40 μM Importazole (cayman chemicals) for 1 hour, it inhibits importinβ/Ran GTP nuclear import pathway. For inhibiting both active and passive nuclear import, MSCs were treated with 30 μM Pitstop2 (abcam) for 1 hour, it disrupts nuclear pore complex structure and blocks nuclear pores. […]

[4] = 1.5 μM for 2 hours, fibronectin-coated glass coverslips
[5] = Importazole 40 μM 1 hour, trans-1,2-Cyclohexanediol 258 mM 5 mins

Row | Structure (SMILES) | FRET intensity (increase = decrease in nuclear membrane tension) [1] | YAP Ratio (nuclear to cytoplasmic YAP, endogenous, anti-YAP antibody) (MSCs [2]; [4]) | nuclear volume (MSCs [2]; [4]) | YAP Ratio (nuclear to cytoplasmic YAP, endogenous, anti-YAP antibody) (MSCs [2]; 1.5 μM for 2 hours, fibronectin-coated glass coverslips, listed as Cyto D) | maximum nuclear curvature (Kmax XZ) / nuclear curvature distribution (MSCs [2]; Hoechst-stained nuclei, XYZ stacks, listed as Cyto D) | YAP Ratio with increasing Kmax XY (MSCs [3]; [5]) | nuclear YAP on thick (8 μm) and thin (1.5 μm) line patterns (MSCs [3]) | YAP Ratio compared with untreated MSCs (MSCs [3]; fibronectin line patterns, Importazole 40 μM 1 hour, trans-1,2-Cyclohexanediol 258 mM 5 mins)
1 | C=C1[C@@H](C)[C@H]2[C@H](Cc3ccccc3)NC(=O)[C@]23[C@H](OC(C)=O)/C=C/[C@@](C)(O)C(=O)[C@@H](C)C/C=C/[C@H]3[C@@H]1O [Cytochalasin D] | increase in FRET intensity | low YAP ratio | high nuclear volumes | lower YAP Ratios | lower maximum curvature in XZ | – | – | –
2 | O=C1NC(=NS(=O)(=O)c2cccc3ccccc23)S/C1=C\c1ccc(Br)cc1 [Pitstop2] | – | – | – | – | – | complete inhibition of curvature influenced YAP Ratio | low nuclear YAP on both thick (8 μm) and thin (1.5 μm) line patterns | –
3 | CC(Nc1nc(N2CCCC2)nc2ccccc12)c1ccccc1 (stereo not shown) [importazole, Importazole] | – | – | – | – | – | small increase in YAP ratios with increasing Kmax XY | low nuclear YAP on both thick (8 μm) and thin line patterns (1.5 μm) | substantially less than untreated MSCs
